ChEMBL document CHEMBL5303573, “Mapping human microbiome drug metabolism by gut bacteria and their genes” (Nature, 2019)

Columns and labels:
[1] = anaerostipes sp., 12 h, 2 µM
Description: The drug is tested on Anaerostipes sp. strain: fecal isolate for biotransformation. The drug concentrations were measured before and after a 12-h incubation by liquid-chromatography-coupled mass spectrometry (LC–MS)

[2] = The drug is tested on Bacteroides uniformis strain: ATCC8492 for biotransformation. The drug concentrations were measured before and after a 12-h incubation by liquid-chromatography-coupled mass spectrometry (LC–MS); conditions: 2 µM
[3] = bacteroides fragilis, 12 h, 2 µM
Description: The drug is tested on Bacteroides fragilis strain: DS-208 for biotransformation. The drug concentrations were measured before and after a 12-h incubation by liquid-chromatography-coupled mass spectrometry (LC–MS)

[4] = The drug is tested on Anaerotruncus colihominis strain: DSM17241 for biotransformation. The drug concentrations were measured before and after a 12-h incubation by liquid-chromatography-coupled mass spectrometry (LC–MS); conditions: 2 µM
[5] = The drug is tested on Clostridium sp. strain: fecal isolate for biotransformation. The drug concentrations were measured before and after a 12-h incubation by liquid-chromatography-coupled mass spectrometry (LC–MS); conditions: 2 µM
[6] = The drug is tested on Bacteroides finegoldii strain: DSM17565 for biotransformation. The drug concentrations were measured before and after a 12-h incubation by liquid-chromatography-coupled mass spectrometry (LC–MS); conditions: 2 µM
[7] = The drug is tested on Anaerococcus hydrogenalis strain: DSM7454 for biotransformation. The drug concentrations were measured before and after a 12-h incubation by liquid-chromatography-coupled mass spectrometry (LC–MS); conditions: 2 µM

| Bacterial Biotransformation [1] | Bacterial Biotransformation [2] | Bacterial Biotransformation [3] | Bacterial Biotransformation [4] | Bacterial Biotransformation [5] | Bacterial Biotransformation [6] | Bacterial Biotransformation [7] | SMILES |
| --- | --- | --- | --- | --- | --- | --- | --- |
| Compound NOT metabolized | Compound NOT metabolized | Compound NOT metabolized | Compound NOT metabolized | Compound NOT metabolized | Compound NOT metabolized | Compound NOT metabolized | CN1CCc2cccc3c2[C@H]1Cc1ccc(O)c(O)c1-3 [APOMORPHINE] |
| Compound NOT metabolized | Compound metabolized | Compound metabolized | Compound NOT metabolized | Compound NOT metabolized | Compound metabolized | Compound NOT metabolized | CCOC(=O)[C@H](CCc1ccccc1)N[C@H]1CCc2ccccc2N(CC(=O)O)C1=O [BENAZEPRIL] |
| Compound NOT metabolized | Compound NOT metabolized | Compound NOT metabolized | Compound NOT metabolized | Compound NOT metabolized | Compound NOT metabolized | Compound NOT metabolized | CCc1oc2ccccc2c1C(=O)c1cc(Br)c(O)c(Br)c1 [BENZBROMARONE] |
| Compound metabolized | Compound metabolized | Compound metabolized | Compound NOT metabolized | Compound metabolized | Compound metabolized | Compound metabolized | CC(C)(Oc1ccc(CCNC(=O)c2ccc(Cl)cc2)cc1)C(=O)O [BEZAFIBRATE] |
| Compound NOT metabolized | Compound NOT metabolized | Compound NOT metabolized | Compound NOT metabolized | Compound NOT metabolized | Compound NOT metabolized | Compound NOT metabolized | OC(CCN1CCCCC1)(c1ccccc1)C1CC2C=CC1C2 (centres undefined) [BIPERIDEN] |
| Compound metabolized | Compound metabolized | Compound metabolized | Compound metabolized | Compound metabolized | Compound metabolized | Compound metabolized | CCN(CC)CCOCCOC(=O)C1(c2ccccc2)CCCC1.O=C(O)CC(O)(CC(=O)O)C(=O)O [CARBETAPENTANE CITRATE] |

The remaining lines, values behind:

| SMILES | Bacterial Biotransformation [1] | Bacterial Biotransformation [2] | Bacterial Biotransformation [3] | Bacterial Biotransformation [4] | Bacterial Biotransformation [5] | Bacterial Biotransformation [6] | Bacterial Biotransformation [7] |
| --- | --- | --- | --- | --- | --- | --- | --- |
| CSc1ccc2c(c1)C(N1CCN(C)CC1)Cc1ccccc1S2.O=C(O)/C=C\C(=O)O (centres undefined) | Compound metabolized | Compound metabolized | Compound NOT metabolized | Compound metabolized | Compound NOT metabolized | Compound NOT metabolized | – |
| N[C@@H](Cc1ccc(N(CCCl)CCCl)cc1)C(=O)O | Compound metabolized | Compound metabolized | Compound metabolized | Compound metabolized | Compound metabolized | Compound metabolized | Compound metabolized |
| CCN(CC)CCNC(=O)c1ccc(NC(C)=O)cc1 [ACECAINIDE] | Compound NOT metabolized | Compound metabolized | Compound NOT metabolized | Compound NOT metabolized | Compound NOT metabolized | Compound NOT metabolized | Compound NOT metabolized |
| CN(C)CCc1c[nH]c2ccc(CS(=O)(=O)N3CCCC3)cc12 [ALMOTRIPTAN] | Compound NOT metabolized | Compound NOT metabolized | Compound NOT metabolized | Compound NOT metabolized | Compound NOT metabolized | Compound NOT metabolized | Compound NOT metabolized |
| C=CCc1ccccc1OCC(O)CNC(C)C (centres undefined) [ALPRENOLOL] | Compound NOT metabolized | Compound NOT metabolized | Compound NOT metabolized | Compound NOT metabolized | Compound NOT metabolized | Compound NOT metabolized | Compound NOT metabolized |
| NC12CC3CC(CC(C3)C1)C2 [AMANTADINE] | Compound NOT metabolized | Compound metabolized | Compound metabolized | Compound NOT metabolized | Compound NOT metabolized | Compound NOT metabolized | Compound NOT metabolized |
| CCN1CCCC1CNC(=O)c1cc(S(=O)(=O)CC)c(N)cc1OC (centres undefined) [AMISULPRIDE] | Compound NOT metabolized | Compound NOT metabolized | Compound NOT metabolized | Compound NOT metabolized | Compound NOT metabolized | Compound NOT metabolized | Compound NOT metabolized |
| CC(C)(C#N)c1cc(Cn2cncn2)cc(C(C)(C)C#N)c1 [ANASTROZOLE] | Compound NOT metabolized | Compound metabolized | Compound NOT metabolized | Compound NOT metabolized | Compound metabolized | Compound NOT metabolized | Compound NOT metabolized |
| CN(C)C(=O)Oc1cc(OC(=O)N(C)C)cc(C(O)CNC(C)(C)C)c1 (centres undefined) [BAMBUTEROL] | Compound NOT metabolized | Compound NOT metabolized | Compound NOT metabolized | Compound NOT metabolized | Compound NOT metabolized | Compound NOT metabolized | Compound NOT metabolized |
| CC(C)C[C@H]1C(=O)N2CCC[C@H]2[C@]2(O)O[C@](NC(=O)[C@@H]3C=C4c5cccc6[nH]c(Br)c(c56)C[C@H]4N(C)C3)(C(C)C)C(=O)N12.CS(=O)(=O)O [BROMOCRIPTINE MESYLATE] | Compound metabolized | Compound metabolized | Compound metabolized | Compound metabolized | Compound metabolized | Compound metabolized | Compound metabolized |
| CN(C)CCOC(c1ccc(Cl)cc1)c1ccccn1.O=C(O)/C=C\C(=O)O (centres undefined) [CARBINOXAMINE MALEATE] | Compound NOT metabolized | Compound NOT metabolized | Compound NOT metabolized | Compound NOT metabolized | Compound NOT metabolized | Compound NOT metabolized | Compound NOT metabolized |
| Cc1nc2n(c(=O)c1CCN1CCC(c3noc4cc(F)ccc34)CC1)CCCC2 [RISPERIDONE] | – | Compound NOT metabolized | Compound metabolized | Compound metabolized | Compound metabolized | Compound NOT metabolized | Compound metabolized |
